# Results reported in patent US9415027B2, “Therapeutic agents” (Allergan, Inc., priority 2013, dated 2016).
# Tests used:
# [1] = target: T1, EP4 (Homo sapiens, UniProt P35408); experiment: EP4 cAMP activity study; assay type: cell-based
# Method: (§1) Data from running binding and activity studies on the compounds of the invention were carried out as described in U.S. Pat. No. 7,427,685, the contents of which are incorporated herein by reference.
# [2] = target: T1, EP4; experiment: EP4 binding study; conditions: read-out: EP4 data (EC50 in nM) KI
# Method: as §1
# [3] = target: T2, EP2 (Homo sapiens, UniProt P43116); experiment: EP2 binding study; conditions: read-out: EP2 Data (EC50 in nM) Ki
# Method: as §1
# [4] = target: T2, EP2; experiment: EP2 cAMP activity study; assay type: cell-based
# Method: as §1
# [5] = target: T3, hEP3A (Homo sapiens, UniProt P43115); experiment: Other receptors activity, hEP3A; assay type: cell-based
# T3 sequence (P43115 1-390): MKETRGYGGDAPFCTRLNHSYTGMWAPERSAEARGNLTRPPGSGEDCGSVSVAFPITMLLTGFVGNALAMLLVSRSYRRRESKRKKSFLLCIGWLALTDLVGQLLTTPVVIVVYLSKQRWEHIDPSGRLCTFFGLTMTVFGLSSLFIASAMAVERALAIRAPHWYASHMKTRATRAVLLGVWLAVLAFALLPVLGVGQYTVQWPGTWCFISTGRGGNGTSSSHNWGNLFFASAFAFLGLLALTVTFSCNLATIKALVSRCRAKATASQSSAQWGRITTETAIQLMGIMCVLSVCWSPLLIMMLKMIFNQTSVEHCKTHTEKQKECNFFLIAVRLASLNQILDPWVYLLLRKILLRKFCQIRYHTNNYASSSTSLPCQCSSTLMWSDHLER
# Method: as §1
# T1 sequence (P35408 whole entry): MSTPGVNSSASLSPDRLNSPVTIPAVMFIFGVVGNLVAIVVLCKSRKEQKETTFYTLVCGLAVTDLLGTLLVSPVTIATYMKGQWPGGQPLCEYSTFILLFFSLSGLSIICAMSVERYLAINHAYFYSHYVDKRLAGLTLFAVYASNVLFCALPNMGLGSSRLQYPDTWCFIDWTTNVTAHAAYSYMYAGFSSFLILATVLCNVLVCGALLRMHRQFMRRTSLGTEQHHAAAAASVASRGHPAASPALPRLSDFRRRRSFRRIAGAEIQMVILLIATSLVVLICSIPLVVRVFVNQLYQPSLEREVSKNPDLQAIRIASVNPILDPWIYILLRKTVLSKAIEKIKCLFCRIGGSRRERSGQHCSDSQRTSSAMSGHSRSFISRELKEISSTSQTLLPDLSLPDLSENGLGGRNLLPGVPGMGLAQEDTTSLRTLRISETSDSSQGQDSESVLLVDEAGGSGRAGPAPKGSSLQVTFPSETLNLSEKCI
# T2 sequence (P43116 whole entry): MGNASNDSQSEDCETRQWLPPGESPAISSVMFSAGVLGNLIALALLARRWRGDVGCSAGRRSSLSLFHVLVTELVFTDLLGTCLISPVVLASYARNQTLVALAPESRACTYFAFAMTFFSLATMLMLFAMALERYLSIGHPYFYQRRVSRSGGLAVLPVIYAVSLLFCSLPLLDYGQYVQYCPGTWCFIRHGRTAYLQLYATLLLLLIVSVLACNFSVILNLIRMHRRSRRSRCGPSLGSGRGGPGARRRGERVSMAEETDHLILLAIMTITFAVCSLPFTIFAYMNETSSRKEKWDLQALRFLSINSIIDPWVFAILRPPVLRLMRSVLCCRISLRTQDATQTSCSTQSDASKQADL
EC50 [1] [nM],Ki [2] [nM],Ki [3] [nM],EC50 [4] [nM],EC50 [5] [nM],Compound
196,149,70,6,–,"O=C(O)c1ccc(CC2CCc3c(cccc3-c3cccc(C(F)(F)F)c3)C2=O)cc1 (stereo not drawn) [Example 1, 4-((1-Oxo-5-(3-(trifluoromethyl)phenyl)-1,2,3,4-tetrahydronaphthalen-2-yl)methyl)benzoic acid]"
108,18,56,1,–,"O=C(O)c1ccc(CC2Cc3c(cccc3-c3cccc(C(F)(F)F)c3)C2=O)cc1 (stereo not drawn) [Example 2, 4-((1-Oxo-4-(3-(trifluoromethyl)phenyl)-2,3-dihydro-1H-inden-2-yl)methyl)benzoic acid]"
1070,954,130,26,–,"O=C(O)c1ccc(CC2Cc3c(cccc3-c3cccc(Cl)c3)C2=O)cc1 (stereo not drawn) [Example 3, 4-((4-(3-Chlorophenyl)-1-oxo-2,3-dihydro-1H-inden-2-yl)methyl)benzoic acid]"
1240,1280,2080,–,–,"O=C(O)c1ccc(CC2Cc3c(cccc3-c3cccc4ccccc34)C2=O)cc1 (stereo not drawn) [Example 4, 4-((4-(Naphthalen-1-yl)-1-oxo-2,3-dihydro-1H-inden-2-yl)methyl)benzoic acid]"
> 10000,1190,61,40,–,"O=C(O)c1ccc(CC2Cc3c(cccc3-c3ccc4ccccc4c3)C2=O)cc1 (stereo not drawn) [Example 5, 4-((4-(Naphthalen-2-yl)-1-oxo-2,3-dihydro-1H-inden-2-yl)methyl)benzoic acid]"
> 10000,4450,338,–,–,"O=C(O)c1ccc(CC2Cc3c(cccc3-c3ccc(C(F)(F)F)cc3)C2=O)cc1 (stereo not drawn) [Example 6, 4-((1-Oxo-4-(4-(trifluoromethyl)phenyl)-2,3-dihydro-1H-inden-2-yl)methyl)benzoic acid]"
> 10000,7090,> 10000,–,–,"O=C(O)c1ccc(CC2Cc3c(cccc3-c3ccccc3C(F)(F)F)C2=O)cc1 (stereo not drawn) [Example 7, 4-((1-Oxo-4-(2-(trifluoromethyl)phenyl)-2,3-dihydro-1H-inden-2-yl)methyl)benzoic acid]"
1050,889,21,11,–,"COc1cc(-c2cccc3c2CC(Cc2ccc(C(=O)O)cc2)C3=O)cc(C(F)(F)F)c1 (stereo not drawn) [Example 8, 4-((4-(3-Methoxy-5-(trifluoromethyl)phenyl)-1-oxo-2,3-dihydro-1H-inden-2-yl)methyl)benzoic acid]"
1630,1780,9,5,–,"O=C(O)c1ccc(CC2Cc3c(cccc3-c3cc(C(F)(F)F)cc(C(F)(F)F)c3)C2=O)cc1 (stereo not drawn) [Example 9, 4-((4-(3,5-Bis(trifluoromethyl)phenyl)-1-oxo-2,3-dihydro-1H-inden-2-yl)methyl)benzoic acid]"
1090,1350,3,1,–,"O=C(O)c1ccc(CC2Cc3c(cccc3-c3ccc(Cl)c(C(F)(F)F)c3)C2=O)cc1 (stereo not drawn) [Example 10, 4-((4-(4-Chloro-3-(trifluoromethyl)phenyl)-1-oxo-2,3-dihydro-1H-inden-2-yl)methyl)benzoic acid]"
186,525,333,–,–,"COc1cccc(-c2cccc3c2CC(Cc2ccc(C(=O)O)cc2)C3=O)c1 (stereo not drawn) [Example 11, 4-((4-(3-Methoxyphenyl)-1-oxo-2,3-dihydro-1H-inden-2-yl)methyl)benzoic acid]"
1170,610,191,217,–,"Cc1cccc(-c2cccc3c2CC(Cc2ccc(C(=O)O)cc2)C3=O)c1 (stereo not drawn) [Example 12, 4-((1-Oxo-4-(m-tolyl)-2,3-dihydro-1H-inden-2-yl)methyl)benzoic acid]"
2440,1010,1140,–,–,"O=C(O)c1ccc(CC2Cc3c(cccc3-c3ccccc3)C2=O)cc1 (stereo not drawn) [Example 13, 4-((1-Oxo-4-phenyl-2,3-dihydro-1H-inden-2-yl)methyl)benzoic acid]"
341,1070,1390,79,–,"O=C(O)c1ccc(CC2CCc3c(cccc3-c3cccc(C(F)(F)F)c3)C2=O)s1 (stereo not drawn) [Example 14, 5-((1-Oxo-5-(3-(trifluoromethyl)phenyl)-1,2,3,4-tetrahydronaphthalen-2-yl)methyl)thiophene-2-carboxylic acid]"
54,137,131,11,> 10000,"O=C(O)c1ccc(CC2Cc3c(cccc3-c3cccc(C(F)(F)F)c3)C2=O)s1 (stereo not drawn) [Example 15, 5-((1-Oxo-4-(3-(trifluoromethyl)phenyl)-2,3-dihydro-1H-inden-2-yl)methyl)thiophene-2-carboxylic acid]"
300,505,199,62,–,"O=C(O)c1ccc(CC2Cc3c(cccc3-c3cccc(Cl)c3)C2=O)s1 (stereo not drawn) [Example 16, 5-((4-(3-Chlorophenyl)-1-oxo-2,3-dihydro-1H-inden-2-yl)methyl)thiophene-2-carboxylic acid]"
> 10000,7,674,695,–,"O=C(O)c1cc(CC2Cc3c(cccc3-c3cccc(C(F)(F)F)c3)C2=O)cs1 (stereo not drawn) [Example 17, 4-((1-Oxo-4-(3-(trifluoromethyl)phenyl)-2,3-dihydro-1H-inden-2-yl)methyl)thiophene-2-carboxylic acid]"
4970,5,96,179,–,"O=C(O)c1csc(CC2Cc3c(cccc3-c3cccc(C(F)(F)F)c3)C2=O)c1 (stereo not drawn) [Example 18, 5-((1-Oxo-4-(3-(trifluoromethyl)phenyl)-2,3-dihydro-1H-inden-2-yl)methyl)thiophene-3-carboxylic acid]"
1470,2740,6760,–,–,"O=C(O)c1cccc(CC2Cc3c(cccc3-c3cccc(C(F)(F)F)c3)C2=O)c1 (stereo not drawn) [Example 19, 3-((1-Oxo-4-(3-(trifluoromethyl)phenyl)-2,3-dihydro-1H-inden-2-yl)methyl)benzoic acid]"
> 10000,954,7360,–,–,"COc1ccc(-c2cccc(C(F)(F)F)c2)c2c1C(=O)C(Cc1ccc(C(=O)O)cc1)C2 (stereo not drawn) [Example 20, 4-((7-Methoxy-1-oxo-4-(3-(trifluoromethyl)phenyl)-2,3-dihydro-1H-inden-2-yl)methyl)benzoic acid]"
874,486,241,79,–,COc1cc(OC)cc(-c2cccc3c2CC(Cc2ccc(C(=O)O)cc2)C3=O)c1 (stereo not drawn) [Example 21]
